Assay results taken from US20220031697A1, “Dose and regimen for an hdm2-p53 interaction inhibitor in hematological tumors” (Novartis AG, priority 2017, published 2022).
Values joined by “and” are separate entries in the source; they are usually repeats but may differ in a detail not shown here. Equal entries are not always repeated. Where two headings read alike, the source gives them in different places.

Legend:
[1] = test system: human SJSA-1 (osteosarcoma) xenograft; assay: TGI PK/PD modelling, xenograft rat; type: in vivo; conditions: human SJSA-1 xenograft rat
Method: Line at 120 ng/mL=95% tumor regression from human SJSA-1 xenograft rat. […] Calculation of average dose level (mg/day):
To further support the 45 mg for HDM201, compartmental PK modeling was used to estimate the individual average concentration during cycle 1 for patients with hematological tumors treated at 45 mg on regimen 2C (FIG. 2). For all patients with measured PK, the estimated average drug concentrations during cycle 1 were above the most conservative average tumor stasis concentration of about 41 ng/mL per cycle determined from PKPD modeling of preclinical data (human SJSA-1 xenograft rat model).

[2] = test system: patients with hematological tumors
Source text: Herein, data are disclosed from this multicenter, open-label, first-in-human Phase I study of HDM201 in patients with advanced TP53 wild-type (WT) leukemias.
The clinical study design allowed parallel exploration of the safety, tolerability, and clinical activity (efficacy) of two broad dosing strategies for HDM201 during dose escalation: intermittent high dose regimens (Regimen 1A and 1B) and extended low dose regimens (Regimen 2A and 2C).
This clinical study utilized a Bayesian logistic regression model (BLRM) to support dose escalation and estimate the MTD for HDM201. The BLRM enables incorporation of available prior information and updates the model parameters based upon the DLTs observed in the clinical study at varied doses in evaluable patients.

[3] = 1A 250 mg N=10, cut-off 15 Jan. 2018
[4] = 1B 120 mg N=23, cut-off 15 Jan. 2018
[5] = 2C 45 mg N=25, cut-off 15 Jan. 2018

`COc1ncc(-c2nc3c(n2C(C)C)[C@H](c2ccc(Cl)cc2)N(c2cc(Cl)cn(C)c2=O)C3=O)c(OC)n1` [HDM201, (S)-5-(5-Chloro-1-methyl-2-oxo-1,2-dihydro-pyridin-3-yl)-6-(4-chloro-phenyl)-2-(2,4-dimethoxy-pyrimidin-5-yl)-1-isopropyl-5,6-dihydro-1H-pyrrolo[3,4-d]imidazol-4-one] was tested, and the “Concentration for 95% tumor regression” value [1] was 120 ng/mL, the “Abdominal Discomfort, Grade 3/4” value [2] was 0 n (%) and the “Abdominal Pain Upper, Grade 3/4” value [2] was 0 n (%). The “Abdominal Pain, Grade 3/4” value [2] was 0 n (%), the “Amylase Increased, Grade 3/4” value [2] was 0 n (%) and the “Arthralgia, Grade 3/4” value [2] was 0 n (%). The “Asthenia, Grade 3/4” value [2] was 0 n (%), the “Atrial Fibrillation, Grade 3/4” value [2] was 0 n (%) and the “Atypical Pneumonia, Grade 3/4” value [2] was 0 n (%). For the same molecule, the “Balanitis Candida, Grade 3/4” value [2] was 0 n (%), the “Blood Alkaline Phosphatase Increased, Grade 3/4” value [2] was 0 n (%) and the “Blood Bilirubin Increased, Grade 3/4” value [2] was 0 n (%). The “Blood Phosphorus Increased, Grade 3/4” value [2] was 0 n (%), the “Cardiac Failure, Grade 3/4” value [2] was 0 n (%) and the “Conjunctival Haemorrhage, Grade 3/4” value [2] was 0 n (%). For the same molecule, the “Constipation, Grade 3/4” value [2] was 0 n (%), the “Cough, Grade 3/4” value [2] was 0 n (%) and the “Cystitis Viral, Grade 3/4” value [2] was 0 n (%). The “Cytomegalovirus Infection, Grade 3/4” value [2] was 0 n (%), the “Decreased Appetite, Grade 3/4” value [2] was 0 n (%) and the “Diarrhoea, Grade 3/4” value [2] was 0 n (%). The “Dyspepsia, Grade 3/4” value [2] was 0 n (%), the “Epistaxis, Grade 3/4” value [2] was 0 n (%) and the “Fatigue, Grade 3/4” value [2] was 0 n (%). For the same molecule, the “General Physical Health Deterioration, Grade 3/4” value [2] was 0 n (%), the “Gingival Bleeding, Grade 3/4” value [2] was 0 n (%) and the “Graft Versus Host Disease, Grade 3/4” value [2] was 0 n (%). The “Haemoglobin Decreased, Grade 3/4” value [2] was 0 n (%), the “Headache, Grade 3/4” value [2] was 0 n (%) and the “Hyperbilirubinaemia, Grade 3/4” value [2] was 0 n (%). The “Hyperglycaemia, Grade 3/4” value [2] was 0 n (%), the “Hyperphosphataemia, Grade 3/4” value [2] was 0 n (%) and the “Hyperuricaemia, All Grades” value [2] was 2 n (%) and 2 (33.3) n (%) and 1 (14.3) n (%). The “Hypoalbuminaemia, Grade 3/4” value [2] was 0 n (%), the “Hypocalcaemia, Grade 3/4” value [2] was 0 n (%) and the “Hypokalaemia, Grade 3/4” value [2] was 0 n (%). The “Hypomagnesaemia, Grade 3/4” value [2] was 0 n (%), the “Hyponatraemia, Grade 3/4” value [2] was 0 n (%) and the “Hypotension, Grade 3/4” value [2] was 0 n (%). For the same molecule, the “Infective Glossitis, Grade 3/4” value [2] was 0 n (%), the “Influenza Like Illness, Grade 3/4” value [2] was 0 n (%) and the “Iron Overload, Grade 3/4” value [2] was 0 n (%). The “Lip Oedema, Grade 3/4” value [2] was 0 n (%), the “Malaise, Grade 3/4” value [2] was 0 n (%) and the “Mouth Haemorrhage, Grade 3/4” value [2] was 0 n (%). For the same molecule, the “Nausea, Grade 3/4” value [2] was 0 n (%), the “Oedema Peripheral, Grade 3/4” value [2] was 0 n (%) and the “Oedema, Grade 3/4” value [2] was 0 n (%). The “Oral Disorder, Grade 3/4” value [2] was 0 n (%), the “Pain In Extremity, Grade 3/4” value [2] was 0 n (%) and the “Pneumonia, Grade 3/4” value [2] was 0 n (%). The “Pollakiuria, Grade 3/4” value [2] was 0 n (%), the “Pyrexia, Grade 3/4” value [2] was 0 n (%) and the “Rash Erythematous, Grade 3/4” value [2] was 0 n (%). For the same molecule, the “Rash Papular, Grade 3/4” value [2] was 0 n (%), the “Rash, Grade 3/4” value [2] was 0 n (%) and the “Rectal Haemorrhage, Grade 3/4” value [2] was 0 n (%). The “Skin Exfoliation, Grade 3/4” value [2] was 0 n (%), the “Vomiting, Grade 3/4” value [2] was 0 n (%) and the “Weight Decreased, Grade 3/4” value [2] was 0 n (%). For the same molecule, the “Amylase Increased, All Grades” value [2, 3] was 1 (10.0) n (%), the “Amylase Increased, Grade 3/4” value [2, 3] was 1 (10.0) n (%) and the “Anemia, All Grades” value [2, 3] was 5 (50.0) n (%). For the same molecule, the “Anemia, Grade 3/4” value [2, 3] was 3 (30.0) n (%), the “Aspiration, All Grades” value [2, 3] was 1 (10.0) n (%) and the “Aspiration, Grade 3/4” value [2, 3] was 1 (10.0) n (%). The “Blood Creatinine Increased, All Grades” value [2, 3] was 2 (20.0) n (%), the “Blood Creatinine Increased, Grade 3/4” value [2, 3] was 0 n (%) and the “Blood Uric Acid Increased, All Grades” value [2, 3] was 2 (20.0) n (%). The “Blood Uric Acid Increased, Grade 3/4” value [2, 3] was 1 (10.0) n (%), the “Diarrhoea, All Grades” value [2, 3] was 3 (30.0) n (%) and the “Diarrhoea, Grade 3/4” value [2, 3] was 0 n (%). The “Febrile Neutropenia, All Grades” value [2, 3] was 2 (20.0) n (%), the “Febrile Neutropenia, Grade 3/4” value [2, 3] was 2 (20.0) n (%) and the “Hyperkalaemia, All Grades” value [2, 3] was 2 (20.0) n (%). The “Hyperkalaemia, Grade 3/4” value [2, 3] was 1 (10.0) n (%), the “Hyperuricaemia, All Grades” value [2, 3] was 1 (10.0) n (%) and the “Hyperuricaemia, Grade 3/4” value [2, 3] was 1 (10.0) n (%). For the same molecule, the “Hypocalcaemia, All Grades” value [2, 3] was 3 (30.0) n (%), the “Hypocalcaemia, Grade 3/4” value [2, 3] was 1 (10.0) n (%) and the “Hypomagnesaemia, All Grades” value [2, 3] was 2 (20.0) n (%). For the same molecule, the “Hypomagnesaemia, Grade 3/4” value [2, 3] was 0 n (%), the “Leukopenia, All Grades” value [2, 3] was 1 (10.0) n (%) and the “Leukopenia, Grade 3/4” value [2, 3] was 1 (10.0) n (%). The “Megakaryocytes Abnormal, All Grades” value [2, 3] was 1 (10.0) n (%), the “Megakaryocytes Abnormal, Grade 3/4” value [2, 3] was 1 (10.0) n (%) and the “Nausea, All Grades” value [2, 3] was 3 (30.0) n (%). For the same molecule, the “Nausea, Grade 3/4” value [2, 3] was 0 n (%), the “Neutropenia, All Grades” value [2, 3] was 4 (40.0) n (%) and the “Neutropenia, Grade 3/4” value [2, 3] was 3 (30.0) n (%). For the same molecule, the “Thrombocytopenia, All Grades” value [2, 3] was 5 (50.0) n (%), the “Thrombocytopenia, Grade 3/4” value [2, 3] was 5 (50.0) n (%) and the “Tumour Lysis Syndrome, All Grades” value [2, 3] was 5 (50.0) n (%). The “Tumour Lysis Syndrome, Grade 3/4” value [2, 3] was 5 (50.0) n (%), the “Cycle 1 DLTs” value ([2]; 1A (d1 Q3W) 250 mg, 3 evaluable patients) was 0 and the “Cycle 1 DLTs” value ([2]; 1A (d1 Q3W) 350 mg, 4 evaluable patients) was 0. The “Cycle 1 DLTs” value ([2]; 1A (d1 Q3W) 400 mg, 9 evaluable patients) was 4, the “Cycle 1 DLTs” value ([2]; 1A total N = 16) was 4: and the “Anemia, All Grades” value [2, 4] was 7 (30.4) n (%). For the same molecule, the “Anemia, Grade 3/4” value [2, 4] was 2 (8.7) n (%), the “Asthenia, All Grades” value [2, 4] was 3 (13.0) n (%) and the “Asthenia, Grade 3/4” value [2, 4] was 1 (4.3) n (%). The “Febrile Bone Marrow Aplasia, All Grades” value [2, 4] was 3 (13.0) n (%), the “Febrile Bone Marrow Aplasia, Grade 3/4” value [2, 4] was 2 (8.7) n (%) and the “Leukopenia, All Grades” value [2, 4] was 3 (13.0) n (%). For the same molecule, the “Leukopenia, Grade 3/4” value [2, 4] was 3 (13.0) n (%), the “Nausea, All Grades” value [2, 4] was 6 (26.1) n (%) and the “Nausea, Grade 3/4” value [2, 4] was 0 n (%). For the same molecule, the “Neutropenia, All Grades” value [2, 4] was 4 (17.4) n (%), the “Neutropenia, Grade 3/4” value [2, 4] was 4 (17.4) n (%) and the “Thrombocytopenia, All Grades” value [2, 4] was 10 (43.5) n (%). The “Thrombocytopenia, Grade 3/4” value [2, 4] was 10 (43.5) n (%), the “Tumour Lysis Syndrome, All Grades” value [2, 4] was 4 (17.4) n (%) and the “Tumour Lysis Syndrome, Grade 3/4” value [2, 4] was 3 (13.0) n (%). For the same molecule, the “Vomiting, All Grades” value [2, 4] was 3 (13.0) n (%), the “Vomiting, Grade 3/4” value [2, 4] was 0 n (%) and the “Cycle 1 DLTs” value ([2]; 1B (d1, d8 Q4W) 150 mg, 6 evaluable patients) was 1. For the same molecule, the “Cycle 1 DLT events” value ([2]; 1B total N = 6) was “Acute Kidney”, the “Cycle 1 DLTs” value ([2]; 1B total N = 6) was 1: and the “Cycle 1 DLTs” value ([2]; 2A (2 weeks on/2 weeks off) 20 mg, 3 evaluable patients) was 0. The “Cycle 1 DLTs” value ([2]; 2A (2 weeks on/2 weeks off) 30 mg, 3 evaluable patients) was 0, the “Cycle 1 DLTs” value ([2]; 2A total N = 6) was 0 and the “Alopecia, All Grades” value [2, 5] was 3 (12.0) n (%). For the same molecule, the “Alopecia, Grade 3/4” value [2, 5] was 0 n (%), the “Anemia, All Grades” value [2, 5] was 13 (52.0) n (%) and the “Anemia, Grade 3/4” value [2, 5] was 9 (36.0) n (%). The “Decreased Appetite, All Grades” value [2, 5] was 6 (24.0) n (%), the “Decreased Appetite, Grade 3/4” value [2, 5] was 0 n (%) and the “Fatigue, All Grades” value [2, 5] was 5 (20.0) n (%). For the same molecule, the “Fatigue, Grade 3/4” value [2, 5] was 2 (8.0) n (%), the “Febrile Neutropenia, All Grades” value [2, 5] was 8 (32.0) n (%) and the “Febrile Neutropenia, Grade 3/4” value [2, 5] was 8 (32.0) n (%). For the same molecule, the “Leukopenia, All Grades” value [2, 5] was 5 (20.0) n (%), the “Leukopenia, Grade 3/4” value [2, 5] was 5 (20.0) n (%) and the “Nausea, All Grades” value [2, 5] was 12 (48.0) n (%). For the same molecule, the “Nausea, Grade 3/4” value [2, 5] was 0 n (%), the “Neutropenia, All Grades” value [2, 5] was 11 (44.0) n (%) and the “Neutropenia, Grade 3/4” value [2, 5] was 10 (40.0) n (%). The “Thrombocytopenia, All Grades” value [2, 5] was 13 (52.0) n (%), the “Thrombocytopenia, Grade 3/4” value [2, 5] was 12 (48.0) n (%) and the “Tumour Lysis Syndrome, All Grades” value [2, 5] was 3 (12.0) n (%). For the same molecule, the “Tumour Lysis Syndrome, Grade 3/4” value [2, 5] was 3 (12.0) n (%), the “Vomiting, All Grades” value [2, 5] was 6 (24.0) n (%) and the “Vomiting, Grade 3/4” value [2, 5] was 0 n (%). For the same molecule, the “Cycle 1 DLTs” value ([2]; 2C (1 week on/3 weeks off) 45 mg, 8 evaluable patients) was 1, the “Cycle 1 DLTs” value ([2]; 2C total N = 8) was 1 and the “Patients with DLT” value ([2]; Regimen 2C 45 mg) was 12.5%. For the same molecule, the “Anemia, CTCAE grade 3/4 related to study drug” value ([2]; Regimen 2C 45 mg, 8 patients) was 37.5%, the “Febrile neutropenia, CTCAE grade 3/4 related to study drug” value ([2]; Regimen 2C 45 mg, 8 patients) was 37.5% and the “Neutropenia, CTCAE grade 3/4 related to study drug” value ([2]; Regimen 2C 45 mg, 8 patients) was 37.5%. The “Patients with at least one CTCAE grade 3/4 AE related to study drug” value ([2]; Regimen 2C 45 mg, 8 patients) was 62.5%, the “Thrombocytopenia, CTCAE grade 3/4 related to study drug” value ([2]; Regimen 2C 45 mg, 8 patients) was 62.5% and the “Treatment-related anemia, all grades” value ([2]; Regimen 2C 45 mg, 8 patients) was 62.5%. For the same molecule, the “Treatment-related decreased appetite, all grades” value ([2]; Regimen 2C 45 mg, 8 patients) was 50.0%, the “Treatment-related febrile neutropenia, all grades” value ([2]; Regimen 2C 45 mg, 8 patients) was 37.5% and the “Treatment-related nausea, all grades” value ([2]; Regimen 2C 45 mg, 8 patients) was 37.5%. The “Treatment-related neutropenia, all grades” value ([2]; Regimen 2C 45 mg, 8 patients) was 50.0% and the “Treatment-related thrombocytopenia, all grades” value ([2]; Regimen 2C 45 mg, 8 patients) was 62.5%.
